Experimental data from US9446039B2, “Aminoheteroaryl compounds as MTH1 inhibitors” (CEMM—FORSCHUNGSZENTRUM FÜR MOLEKULARE MEDIZIN GMBH, priority 2012, dated 2016).

Experiments:
Format in all cases: binding
[1] = target: SW480 colon carcinoma cells lysate proteins (Homo sapiens, UniProt P06753); conditions: PreyGene TPM3
[2] = target: T1, SW480 colon carcinoma cells lysate proteins (Homo sapiens, UniProt Q9H9Z2); conditions: PreyGene LIN28A
T1 sequence (Q9H9Z2 1-209): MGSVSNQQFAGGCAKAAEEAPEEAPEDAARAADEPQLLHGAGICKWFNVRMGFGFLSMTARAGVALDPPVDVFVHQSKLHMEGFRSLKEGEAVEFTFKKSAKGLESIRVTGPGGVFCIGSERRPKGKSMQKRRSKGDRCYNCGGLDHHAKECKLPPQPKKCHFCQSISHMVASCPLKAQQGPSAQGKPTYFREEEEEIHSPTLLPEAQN

[3] = target: T2, SW480 colon carcinoma cells lysate proteins (Homo sapiens, UniProt P04075); conditions: PreyGene ALDOA
T2 sequence (P04075 1-364): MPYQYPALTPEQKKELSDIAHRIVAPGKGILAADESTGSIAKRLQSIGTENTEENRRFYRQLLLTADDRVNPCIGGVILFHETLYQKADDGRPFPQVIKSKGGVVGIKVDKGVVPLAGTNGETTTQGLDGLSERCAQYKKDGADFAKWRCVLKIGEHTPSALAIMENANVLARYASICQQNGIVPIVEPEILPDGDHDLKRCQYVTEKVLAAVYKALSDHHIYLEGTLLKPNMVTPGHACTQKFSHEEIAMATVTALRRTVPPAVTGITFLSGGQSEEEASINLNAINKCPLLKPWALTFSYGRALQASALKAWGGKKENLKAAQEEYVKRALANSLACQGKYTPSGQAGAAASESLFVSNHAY

[4] = target: T3, SW480 colon carcinoma cells lysate proteins (Homo sapiens, UniProt O43175); conditions: PreyGene PHGDH
T3 sequence (O43175 1-533): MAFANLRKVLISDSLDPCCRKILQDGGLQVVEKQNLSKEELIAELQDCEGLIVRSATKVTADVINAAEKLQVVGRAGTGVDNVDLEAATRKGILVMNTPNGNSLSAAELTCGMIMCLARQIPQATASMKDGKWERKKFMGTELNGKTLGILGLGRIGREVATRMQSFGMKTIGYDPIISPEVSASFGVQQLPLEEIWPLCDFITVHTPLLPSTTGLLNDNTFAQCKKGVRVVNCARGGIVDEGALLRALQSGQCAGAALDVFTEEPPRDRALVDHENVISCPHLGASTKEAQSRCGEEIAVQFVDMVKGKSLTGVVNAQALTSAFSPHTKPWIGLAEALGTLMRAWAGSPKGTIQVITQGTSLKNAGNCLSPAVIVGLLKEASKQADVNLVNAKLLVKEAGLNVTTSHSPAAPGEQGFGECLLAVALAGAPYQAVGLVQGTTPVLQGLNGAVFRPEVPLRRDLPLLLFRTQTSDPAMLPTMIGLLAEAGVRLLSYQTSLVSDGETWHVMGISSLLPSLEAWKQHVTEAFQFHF

[5] = target: T4, SW480 colon carcinoma cells lysate proteins (Homo sapiens, UniProt P29373); conditions: PreyGene CRABP2
T4 sequence (P29373 1-138): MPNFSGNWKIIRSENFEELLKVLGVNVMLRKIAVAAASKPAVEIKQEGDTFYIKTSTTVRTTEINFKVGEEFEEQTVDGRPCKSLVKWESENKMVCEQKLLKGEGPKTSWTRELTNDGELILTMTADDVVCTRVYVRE

[6] = target: T5, SW480 colon carcinoma cells lysate proteins (Homo sapiens, UniProt Q8NFT6); conditions: PreyGene DBF4B
T5 sequence (Q8NFT6 1-615): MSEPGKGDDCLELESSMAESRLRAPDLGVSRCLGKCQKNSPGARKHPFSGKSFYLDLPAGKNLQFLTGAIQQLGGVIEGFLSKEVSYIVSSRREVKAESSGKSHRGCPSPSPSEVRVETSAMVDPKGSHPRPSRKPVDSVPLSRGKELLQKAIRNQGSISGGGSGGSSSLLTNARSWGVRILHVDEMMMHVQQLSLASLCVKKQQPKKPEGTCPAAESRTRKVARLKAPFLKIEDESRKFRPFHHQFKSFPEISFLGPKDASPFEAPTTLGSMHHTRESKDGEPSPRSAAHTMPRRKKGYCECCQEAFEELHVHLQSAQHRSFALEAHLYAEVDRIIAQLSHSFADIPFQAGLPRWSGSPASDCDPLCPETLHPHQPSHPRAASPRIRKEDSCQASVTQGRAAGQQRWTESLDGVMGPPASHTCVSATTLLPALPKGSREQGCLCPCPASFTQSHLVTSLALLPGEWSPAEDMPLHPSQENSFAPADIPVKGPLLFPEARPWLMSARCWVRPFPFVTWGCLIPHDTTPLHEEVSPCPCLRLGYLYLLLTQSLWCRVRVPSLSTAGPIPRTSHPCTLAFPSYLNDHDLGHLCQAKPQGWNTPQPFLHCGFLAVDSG

Sequence of SW480 colon carcinoma cells lysate proteins (Homo sapiens, UniProt P06753) (P06753 whole entry): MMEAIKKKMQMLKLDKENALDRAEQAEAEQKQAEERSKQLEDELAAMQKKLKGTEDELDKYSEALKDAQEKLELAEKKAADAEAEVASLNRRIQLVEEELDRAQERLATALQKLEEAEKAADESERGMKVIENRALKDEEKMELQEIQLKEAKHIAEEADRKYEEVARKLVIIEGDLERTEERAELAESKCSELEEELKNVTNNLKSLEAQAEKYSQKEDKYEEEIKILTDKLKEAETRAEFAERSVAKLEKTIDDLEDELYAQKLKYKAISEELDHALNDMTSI

In the case of C[C@H](Oc1cc(-c2cnn(C3CCNCC3)c2)cnc1N)c1c(Cl)ccc(F)c1Cl [(5)-crizotinib], the AvgP [1] was 0.4204, the “SC.Exp. 1-1” value [1] was 2 and the “SC.Exp. 1-2” value [1] was 3. For the same compound, the “SC.Exp. 2-1” value [1] was 0, the “SC.Exp. 2-2” value [1] was 0 and the “Sum (SC.Exp.)” value [1] was 5. The AvgP [2] was 0.3021, the “SC.Exp. 1-1” value [2] was 2 and the “SC.Exp. 1-2” value [2] was 2. The “SC.Exp. 2-1” value [2] was 2, the “SC.Exp. 2-2” value [2] was 0 and the “Sum (SC.Exp.)” value [2] was 6. The AvgP [3] was 0.2283, the “SC.Exp. 1-1” value [3] was 12 and the “SC.Exp. 1-2” value [3] was 12. The “SC.Exp. 2-1” value [3] was 2, the “SC.Exp. 2-2” value [3] was 0 and the “Sum (SC.Exp.)” value [3] was 26. For the same compound, the AvgP [4] was 0.4081, the “SC.Exp. 1-1” value [4] was 5 and the “SC.Exp. 1-2” value [4] was 7. For the same compound, the “SC.Exp. 2-1” value [4] was 0, the “SC.Exp. 2-2” value [4] was 0 and the “Sum (SC.Exp.)” value [4] was 12. The AvgP [5] was 0.2533, the “SC.Exp. 1-1” value [5] was 4 and the “SC.Exp. 1-2” value [5] was 1. For the same compound, the “SC.Exp. 2-1” value [5] was 0, the “SC.Exp. 2-2” value [5] was 0 and the “Sum (SC.Exp.)” value [5] was 5. The AvgP [6] was 0.2, the “SC.Exp. 1-1” value [6] was 0 and the “SC.Exp. 1-2” value [6] was 0. For the same compound, the “SC.Exp. 2-1” value [6] was 2, the “SC.Exp. 2-2” value [6] was 0 and the “Sum (SC.Exp.)” value [6] was 2.
